Results: patent publication US20230041563A1, “N-(1,3,4-OXADIAZOL-2-YL)ARYLCARBOXAMIDES OR SALTS THEREOF, PREPARATION METHODS, HERBICIDAL COMPOSITIONS AND USES THEREOF” (priority 2018, published 2023)
Where two headings read alike, the source gives them in different places.

Tested on: weeds
Test: Actual control effects and combined effects of mixtures of active ingredients (i) and (ii), stem-leaf treatment, Gowing method
Assay type: in vivo
Conditions: 20 days; for pest or weed control at 450 g/ha: (ii) 30 g a.i./mu
Description: According to the actual control effect and the property of the herbicides, the balance of the formula and other factors, the optimal ratio was determined. In the calculation formula: X represents the fresh weight inhibition rate when the active ingredient (i) is used in an amount of P; and Y represents the fresh weight inhibition rate when the active ingredient (ii) is used in an amount of Q. The statistical results are shown in Tables 9-11 below.

[1] = Monochoria vaginalis, (ii) 1 g a.i./mu
[2] = 480 h, Echinochloa phyllopogon, (ii) 3 g a.i./mu, stem-leaf treatment, read-out: Control effect of (ii) alone at corresponding dose
[3] = 480 h, Echinochloa phyllopogon, (ii) 15 g a.i./mu, read-out: Control effect of (ii) alone at corresponding dose
[4] = Echinochloa phyllopogon, (ii) 3 g a.i./mu
[5] = Monochoria vaginalis, (ii) 3 g a.i./mu
[6] = Pontederia vaginalis, 480 h, Monochoria vaginalis, (ii) 3 g a.i./mu, stem-leaf treatment, read-out: Control effect of (ii) alone at corresponding dose
[7] = Echinochloa phyllopogon, (ii) 0.6 g a.i./mu
[8] = Monochoria vaginalis, (ii) 3 g a.i./mu, stem-leaf treatment

CCC(C)Nc1c([N+](=O)[O-])cc(C(C)(C)C)cc1[N+](=O)[O-] (centres unmarked) [Butralin]
pest or weed control at 45 g/ha (480 h, Cyperus difformis, (ii) 3 g a.i./mu, stem-leaf treatment, read-out: Control effect of (ii) alone at corresponding dose): 16.4%
pest or weed control at 450 g/ha (480 h, Cyperus difformis, read-out: Control effect of (ii) alone at corresponding dose): 46.8%
Control effect of (ii) alone at corresponding dose (Cyperus difformis, (ii) 3 g a.i./mu): 16.4%

COc1cc(OC)nc(NC(=O)NS(=O)(=O)c2c(C3=NOCC(C)O3)c(Cl)nn2C)n1 (centres unmarked) [Metazosulfuron]
Control effect of (ii) alone at corresponding dose [1]: 25.6%
Control effect of (ii) alone at corresponding dose (Monochoria vaginalis, (ii) 1 g a.i./mu, stem-leaf treatment): 25.6%
Control effect of (ii) alone at corresponding dose (Monochoria vaginalis, (ii) 1.2 g a.i./mu): 30.3%

CCCCOC(=O)[C@@H](C)Oc1ccc(Oc2ccc(C#N)cc2F)cc1 [Cyhalofop-butyl]
pest or weed control at 45 g/ha [2]: 12.2%
pest or weed control at […] [3]: 45.1%
Control effect of (ii) alone at corresponding dose [4]: 12.2%

CCN(C(=O)n1nnn(-c2ccccc2Cl)c1=O)C1CCCCC1 [Fentrazamide]
Control effect of (ii) alone at corresponding dose [5]: 30.2%
pest or weed control at […] (Pontederia vaginalis, 480 h, Monochoria vaginalis, (ii) 1.5 g a.i./mu, read-out: Control effect of (ii) alone at corresponding dose): 18.3%
pest or weed control at 45 g/ha [6]: 30.2%

COc1c(Cl)ccc(-c2nc(C(=O)OCc3ccccc3)c(Cl)c(N)c2F)c1F [Florpyrauxifen-benzyl]
Control effect of (ii) alone at corresponding dose [7]: 21.5%
Control effect of (ii) alone at corresponding dose (Echinochloa phyllopogon, (ii) 0.6 g a.i./mu, stem-leaf treatment): 21.5%
Control effect of (ii) alone at corresponding dose [4]: 70.5%
Control effect of (ii) alone at corresponding dose (Echinochloa phyllopogon, (ii) 3 g a.i./mu, stem-leaf treatment): 70.5%

O=C(O)CCCOc1ccc(Cl)cc1Cl [2,4-D butyric acid]
Control effect of (ii) alone at corresponding dose [5]: 23.5%
Control effect of (ii) alone at corresponding dose [8]: 23.5%
Control effect of (ii) alone at corresponding dose (Monochoria vaginalis, (ii) 15 g a.i./mu): 65.3%
Control effect of (ii) alone at corresponding dose (Monochoria vaginalis, (ii) 15 g a.i./mu, stem-leaf treatment): 65.3%

COc1c(Cl)ccc(Cl)c1C(=O)O [Dicamba]
Control effect of (ii) alone at corresponding dose [5]: 50.9%
Control effect of (ii) alone at corresponding dose (Monochoria vaginalis, (ii) 5 g a.i./mu): 70.2%
pest or weed control at 45 g/ha [6]: 50.9%
pest or weed control at 75 g/ha (Pontederia vaginalis, 480 h, Monochoria vaginalis, (ii) 5 g a.i./mu, stem-leaf treatment, read-out: Control effect of (ii) alone at corresponding dose): 70.2%

CCSC(=O)N1CCCCCC1 [Molinate]
pest or weed control at 45 g/ha [2]: 7.8%
pest or weed control at 450 g/ha (480 h, Echinochloa phyllopogon, read-out: Control effect of (ii) alone at corresponding dose): 40.6%
Control effect of (ii) alone at corresponding dose [4]: 7.8%

CCNc1nc(Cl)nc(NC(C)(C)C)n1 [Terbuthylazine]
pest or weed control at 9 g/ha (480 h, Echinochloa phyllopogon, (ii) 0.6 g a.i./mu, read-out: Control effect of (ii) alone at corresponding dose): 0.95%
pest or weed control at […] (480 h, Echinochloa phyllopogon, (ii) 15 g a.i./mu, stem-leaf treatment, read-out: Control effect of (ii) alone at corresponding dose): 18.6%
Control effect of (ii) alone at corresponding dose (Echinochloa phyllopogon, (ii) 15 g a.i./mu): 18.6%

CCc1cccc(C)c1N(C(=O)CCl)C(C)COC (centres unmarked) [Metolachlor]
pest or weed control at 45 g/ha (480 h, Digitaria sanguinalis, (ii) 3 g a.i./mu, stem-leaf treatment, read-out: Control effect of (ii) alone at corresponding dose): 15.3%
pest or weed control at 45 g/ha [2]: 7.8%
pest or weed control at […] [3]: 15.3%
Control effect of (ii) alone at corresponding dose [4]: 7.8%

C#CCN(C)c1c(C#N)cnn1-c1nn2c(c1Cl)CCCC2 [Pyraclonil]
Control effect of (ii) alone at corresponding dose (Sagittaria trifolia L., (ii) 0.6 g a.i./mu): 9.3%
Control effect of (ii) alone at corresponding dose (Sagittaria trifolia L., (ii) 15 g a.i./mu): 72.5%
Control effect of (ii) alone at corresponding dose (Sagittaria trifolia, (ii) 15 g a.i./mu, stem-leaf treatment): 72.5%

CSc1nc(NC(C)C)nc(NC(C)C)n1 [Prometryn]
pest or weed control at 9 g/ha (480 h, Echinochloa phyllopogon, (ii) 0.6 g a.i./mu, stem-leaf treatment, read-out: Control effect of (ii) alone at corresponding dose): 21.5%
pest or weed control at 300 g/ha (480 h, Echinochloa phyllopogon, (ii) 20 g a.i./mu, stem-leaf treatment, read-out: Control effect of (ii) alone at corresponding dose): 68.2%
Control effect of (ii) alone at corresponding dose [7]: 21.5%
Control effect of (ii) alone at corresponding dose (Echinochloa phyllopogon, (ii) 20 g a.i./mu): 68.2%

O=C(O)c1nc(Cl)ccc1Cl [Clopyralid]
Control effect of (ii) alone at corresponding dose [1]: 49.6%
pest or weed control at 15 g/ha (Pontederia vaginalis, 480 h, Monochoria vaginalis, (ii) 1 g a.i./mu, stem-leaf treatment, read-out: Control effect of (ii) alone at corresponding dose): 49.6%
pest or weed control at 18 g/ha (Pontederia vaginalis, 480 h, Monochoria vaginalis, (ii) 1.2 g a.i./mu, read-out: Control effect of (ii) alone at corresponding dose): 56.3%

Sanzuohuangcaotong
Control effect of (ii) alone at corresponding dose [5]: 21.5%
Control effect of (ii) alone at corresponding dose [8]: 21.5%
Control effect of (ii) alone at corresponding dose (Monochoria vaginalis, (ii) 6 g a.i./mu): 40.1%
